The text below walks through data of patent US11247993B2, “Pyridone derivative, composition and use as antiviral drug thereof” (priority 2018, dated 2022).

The AUC(0-t) is exposure summed from dosing to a finite time, without extrapolation to infinity. Read a high AUC(0-t) as high exposure. By Cmax is commonly meant the maximum level reached in the sampled fluid or tissue. Usually Tmax stands for the time at which the peak concentration occurs. As usually defined, the EC50 is the concentration at which the effect is half-maximal. Broadly, the CC50 is the concentration at which the toxic effect on the cells reaches its halfway point. A higher CC50 goes with lower toxicity to the cells.

SMILES strings stand for the structures. A value given as a limit tells only on which side of the number the result lay.

Details of data set [1]: species or system SD rats. The settings on record: SD, rat, in vivo, po, 3 mg/kg. Here is the method:
Intragastric administration: about 4 mg of Compound III-2 was accurately weighed out and added with appropriate amount of PEG400, followed by vortex to a clean solution. An appropriate volume of 30% Solutol HS-15 aqueous solution and saline were added, and followed by vortex to give a pharmaceutical preparation of a concentration of 0.3 mg·mL^−1, with PEG400: 30% Solutol HS-15: saline=2:2:6 (v/v/v). SD rats were given a single oral administration of 3.0 mg·kg^−1 of Compounds III-2, and the concentration of Compound II-6 in the plasma of S-D rats was determined before administration and 0.25 h, 0.5 h, 1 h, 2 h, 4 h, 8 h, 12 h and 24 h after administration.

Data set [2] deals with influenza A virus (H1N1, A/WSN/33). As to the kind of experiment: Efficacy on mice, IAV mouse infection model. In kind it is in vivo, Female BALB/c mice. The settings on record: 15 mpk orally twice a day. From the text:
Female BALB/c mice were inoculated with influenza A virus (H1N1, A/WSN/33) by intranasal administration to establish an IAV mouse infection model. The vehicle, Compound III-2 (15 mpk) or oseltamivir phosphate (15 mpk) were orally administered twice a day. Animal weight and survival status were monitored daily during the test, and on the 5th day, some animals were killed to take lung tissue for virus titer detection, and the remaining mice were used for survival rate monitoring. The in vivo anti-influenza virus efficacy of the test compound was determined by virus titer in lung tissue, mouse body weight change and survival rate.

In data set [3] the test system is influenza virus A/PR/8/34 (H1N1). Briefly: organism not typed. Type of data set: cell-based. The settings on record: MDCK cells, A/PR/8/34 (H1N1), 5 days, CCK8; read-out: EC50.
The subject of the next data set is MDCK cells. Briefly: in vitro. In kind it is cell-based. As to the method: Method for cytotoxicity study: The cytotoxicity assay and antiviral activity assay of the compounds were performed in parallel, except for the absence of virus, other experimental conditions were consistent with the antiviral activity assay. After 5 days of culture, the cell viability was measured using the cell viability detection kit CCK8. Raw data were used for calculating compound cytotoxicity (CC50) (see Table 1 for results).

On to `COC(=O)OCOc1c2n(ccc1=O)N([C@@H]1c3ccccc3SCc3c1ccc(F)c3F)[C@@H]1COC3(CC3)CN1C2=O` [III-2], for which, in data set [1], the AUC(0-t) was 1377 ng·h/mL, the highest concentration (Cmax) was found to be 253 ng/mL, the F was 47.2% and the T1/2 was 3.32 h. Moreover, the Tmax in data set [1] stood at 1.67 h. Moreover, the Body weight change entry in data set [2] (infected mice, during the experiment) was “remained stable”. Further, the Survival rate in data set [2] (infected mice, to the predetermined experimental end point) amounted to 100%. Also, the “Mean difference of virus titer compared with the solvent group” value in data set [2] (mice, 5th day after infection) is 3.92 Log 10 (number of plaques per gram of lung tissue). Moreover, the “Influenza Virus Titer in lung tissue” value in data set [2] (mice, 5th day after infection, 15 mg/kg) is given as 3.28 Log10 (plaques number/gram of. In data set [2] (mice, 5th day after infection, listed as Compound III-2, 15 mg/kg), the “Influenza Virus Titer in lung tissue” value was 3.28 ± 0.2813 Log10 (plaques number/gram of.

In the case of `O=C1c2c(O)c(=O)ccn2N([C@@H]2c3ccccc3SCc3c2ccc(F)c3F)[C@@H]2COCCN12` [Baloxavir acid, reference compound], the EC50 in data set [3] worked out at 1.4 nM. For the same compound, the CC50 in the data set on MDCK cells was greater than 1000 nM.
